≈ marks a conversion by molar mass, not a printed value. Calls of active or inactive are those of the source. The rule behind the calls is not given here.
Tested on: OVCAR-3
Experiment: Cytotoxicity against human OVCAR-3 after 48 hrs
Format: functional
Conditions: OVCAR-3, 48 h, read-out: CD50 (the source's name)

Q: For O=C(/C=C/c1ccc(O)cc1)CC(=O)/C=C/c1ccc(O)cc1 [BISDEMETHOXYCURCUMIN], which CC50 is on record?
A: 3.1 µg/mL (≈ 10.1 µM)

Q: With COc1cc(/C=C/C(=O)CC(=O)/C=C/c2ccc(O)c(OC)c2)ccc1O [CURCUMIN] as the compound, how does the CC50 read?
A: 4.4 µg/mL (≈ 11.9 µM)

Q: With COc1cc(/C=C/C(O)=C/C(=O)/C=C/c2ccc(O)cc2)ccc1O [DEMETHOXYCURCUMIN] as the compound, how does the CC50 read?
A: 3.8 µg/mL (≈ 11.2 µM)

Tested on: OVCAR-3
Experiment: Cytotoxicity against human OVCAR-3 upto 20 ug/mL after 48 hrs
Format: functional, cell-based
Conditions: not given

Q: Which Activity does the source give for Cc1coc2c1C(=O)[C@@H]1[C@@](C)(C2)[C@H](O)CC[C@@]1(C)O here?
A: inactive

Q: For C=C(C)[C@@H]1CC[C@](C)(O)[C@H]2CC[C@](C)(O)[C@H]2C1, which Activity is on record?
A: inactive

Q: Cc1cc(C(=O)O)cc2c1CCC2C (stereo unspecified) was tested. Which Activity did it give?
A: inactive
